What is called EC50 is the concentration giving half of the maximal effect. Low values mean higher potency in that assay, high ones lower potency in that assay.

Our source for the EC50 values is patent US8399681B2, “Substituted aminothiazolone indazoles as estrogen related receptor-alpha modulators” (Janssen Pharmaceutica NV, priority 2009, dated 2013).

The experiment deals with T1, ERR1 (also known as ERR-α or ERR-1) (Homo sapiens, UniProt P11474).
T1 sequence (P11474 193-421 limits assumed): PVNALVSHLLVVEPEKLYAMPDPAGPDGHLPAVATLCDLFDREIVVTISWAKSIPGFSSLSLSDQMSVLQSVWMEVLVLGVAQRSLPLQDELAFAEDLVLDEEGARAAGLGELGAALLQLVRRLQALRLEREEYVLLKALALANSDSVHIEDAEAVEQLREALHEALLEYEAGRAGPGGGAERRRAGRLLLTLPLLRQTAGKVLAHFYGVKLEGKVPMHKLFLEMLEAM
The experiment in a line: TR-FRET assay (disruption of co-activator peptide binding). The format is biochemical. To be noted: 6His-tagged ERR1 LBD, GST-hSRC2 co-activator polypeptide; average of 3 independent experiments. As for the experimental part: Time-Resolved Fluorescence Resonance Energy Transfer (TR-FRET) experiments were performed to examine the functional response of ERR1 (also known as ERR-α or ERR-1) ligands. The TR-FRET assay described herein relied on the conformation of ERR1 for binding to a co-activator peptide: when a test compound binds to ERR1 and alters its conformation, it can disrupt the binding of the co-activator peptide. The components of this homogeneous secondary assay included: the ^6His-tagged-ERR1LBD, a GST-labeled-hSRC2 co-activator polypeptide and a fluorescent donor/acceptor pair from CIS bio international htrf/bioassays (Bedford, Mass.) using both an α-GST Europium Cryptate (Eu) label and an α^6His-XL665 (allophycocyanin) fluorophore.
For TR-FRET measurements, the reaction was buffered in 25 mM Tris pH 8, 2.5 mM Hepes, 20 mM KCl, 1 mM DTT, and 0.05 mg/mL BSA (-lipids). The final concentrations of reagents were 6 nM of ERR1LBD, 6 nM GST-SRC-2 peptide, 30 nM Eu cryptate, and 7.5 nM XL665. Reactions were allowed to reach equilibrium at 25° C. for 4-18 hours before collecting data on the Analyst from LJL Biosystems (Molecular Devices Sunnyvale, Calif.). As a time-resolved method, the samples were excited at […] and emission was collected for 1 ms at both 615 and 665 nm with delays of 400 and 75 μs, respectively. Dose response curves were fitted using a hyperbolic equation and the data reported is the average of 3 independent experiments.
In general terms: TR-FRET usually uses a lanthanide donor and a delayed reading to cut background.

A value given as a limit tells only on which side of the number the result lay.

`CN[C@H]1CCN(C2=NC(=O)/C(=C/c3ccc4c(cnn4Cc4ccc(Cl)cc4C(F)(F)F)c3)S2)C1` (stereo in doubt) [Example 115, 5-[1-(4-Chloro-2-trifluoromethyl-benzyl)-1H-indazol-5-ylmethylene]-2-(3-methylamino-pyrrolidin-1-yl)-thiazol-4-one]: the concentration giving a half-maximal response (EC50) was 8.4 nM.
For the compound `O=C1N=C(N2CC[C@H](NC(=O)C(F)(F)F)C2)S/C1=C\c1ccc2c(cnn2Cc2ccc(Cl)cc2C(F)(F)F)c1` (stereo in doubt) [Example 116, N-(1-{5-[1-(4-Chloro-2-trifluoromethyl-benzyl)-1H-indazol-5-ylmethylene]-4-oxo-4,5-dihydro-thiazol-2-yl}-pyrrolidin-3-yl)-2,2,2-trifluoro-acetamide], the EC50 worked out at 11 nM.
In turn, `CC[C@H]1CN(C2=NC(=O)/C(=C/c3ccc4c(cnn4Cc4ccc(Cl)cc4C(F)(F)F)c3)S2)CCN1` (stereo in doubt) [Example 123, 5-[1-(4-Chloro-2-trifluoromethyl-benzyl)-1H-indazol-5-ylmethylene]-2-(3-ethyl-piperazin-1-yl)-thiazol-4-one] displayed a concentration giving a half-maximal response (EC50) of 5 nM.
As for `CN1CCN(C2=NC(=O)/C(=C/c3ccc4c(cnn4Cc4ccc(C(F)(F)F)cc4C(F)(F)F)c3)S2)CC1` [Compound 2, 5-[1-(2,4-Bis-trifluoromethyl-benzyl)-1H-indazol-5-ylmethylene]-2-(4-methyl-piperazin-1-yl)-thiazol-4-one], the figure is 7.2 nM.
On to `O=C1N=C(N2CCOCC2)S/C1=C\c1ccc2c(cnn2Cc2ccc(C(F)(F)F)cc2C(F)(F)F)c1` [Compound 3, 5-[1-(2,4-Bis-trifluoromethyl-benzyl)-1H-indazol-5-ylmethylene]-2-morpholin-4-yl-thiazol-4-one], for which the midpoint of the response, the EC50, lay at 21 nM.
Turning to `O=C1N=C(N2CCN(CCO)CC2)S/C1=C\c1ccc2c(cnn2Cc2ccc(F)cc2C(F)(F)F)c1` [Compound 4, 5-[1-(4-Fluoro-2-trifluoromethyl-benzyl)-1H-indazol-5-ylmethylene]-2-[4-(2-hydroxy-ethyl)-piperazin-1-yl]-thiazol-4-one], the EC50 was 92 nM.
In the case of `CC(=O)N1CCN(C2=NC(=O)/C(=C/c3ccc4c(cnn4Cc4ccc(F)cc4C(F)(F)F)c3)S2)CC1` [Compound 5, 2-(4-Acetyl-piperazin-1-yl)-5-[1-(4-fluoro-2-trifluoromethyl-benzyl)-1H-indazol-5-ylmethylene]-thiazol-4-one], the 50% effective concentration (EC50) stood at 42 nM.
As for `O=C1N=C(N2CCN(CCO)CC2)S/C1=C\c1ccc2c(cnn2Cc2ccc(C(F)(F)F)cc2C(F)(F)F)c1` [Compound 6, 5-[1-(2,4-Bis-trifluoromethyl-benzyl)-1H-indazol-5-ylmethylene]-2-[4-(2-hydroxy-ethyl)-piperazin-1-yl]-thiazol-4-one], the figure is 9 nM.
As for `O=C1N=C(N2CCNCC2)S/C1=C\c1ccc2c(cnn2Cc2ccc(C(F)(F)F)cc2C(F)(F)F)c1` [Compound 7, 5-[1-(2,4-Bis-trifluoromethyl-benzyl)-1H-indazol-5-ylmethylene]-2-piperazin-1-yl-thiazol-4-one], the figure is 38 nM.
Take `CN1CCN(C2=NC(=O)/C(=C/c3ccc4c(cnn4Cc4ccc(Cl)cc4C(F)(F)F)c3)S2)CC1` [Compound 8, 5-[1-(4-Chloro-2-trifluoromethyl-benzyl)-1H-indazol-5-ylmethylene]-2-(4-methyl-piperazin-1-yl)-thiazol-4-one]: the EC50 was 7 nM.
Compound `N#Cc1ccc(Cn2ncc3cc(/C=C4\SC(N5CCN(CCO)CC5)=NC4=O)ccc32)c(C(F)(F)F)c1` [Compound 9, 4-(5-{2-[4-(2-Hydroxy-ethyl)-piperazin-1-yl]-4-oxo-4H-thiazol-5-ylidenemethyl}-indazol-1-ylmethyl)-3-trifluoromethyl-benzonitrile] returned an EC50 of 57.5 nM.
As for `CN1CCN(C2=NC(=O)/C(=C/c3ccc4c(cnn4Cc4ccc(C#N)cc4C(F)(F)F)c3)S2)CC1` [Compound 10, 4-{5-[2-(4-Methyl-piperazin-1-yl)-4-oxo-4H-thiazol-5-ylidenemethyl]-indazol-1-ylmethyl}-3-trifluoromethyl-benzonitrile], the figure is 199 nM.
On to `O=C1N=C(N2C[C@H](O)C[C@H]2C(=O)O)S/C1=C\c1ccc2c(cnn2Cc2ccc(Cl)cc2C(F)(F)F)c1` [Compound 11, 1-{5-[1-(4-Chloro-2-trifluoromethyl-benzyl)-1H-indazol-5-ylmethylene]-4-oxo-4,5-dihydro-thiazol-2-yl}-4-(R)-hydroxy-pyrrolidine-2-(S)-carboxylic acid], for which the EC50 was found to be 57 nM.
Consider `O=C1CN(C2=NC(=O)/C(=C/c3ccc4c(cnn4Cc4ccc(Cl)cc4C(F)(F)F)c3)S2)CCN1` [Compound 12, 4-{5-[1-(4-Chloro-2-trifluoromethyl-benzyl)-1H-indazol-5-ylmethylene]-4-oxo-4,5-dihydro-thiazol-2-yl}-piperazin-2-one], for which the EC50 stood at 4.6 nM.
For the compound `O=C1N=C(N2CCN(CCO)CC2)S/C1=C\c1ccc2c(cnn2Cc2ccc(Cl)cc2C(F)(F)F)c1` [Compound 13, 5-[1-(4-Chloro-2-trifluoromethyl-benzyl)-1H-indazol-5-ylmethylene]-2-[4-(2-hydroxy-ethyl)piperazin-1-yl]-thiazol-4-one], the concentration giving a half-maximal response (EC50) amounted to 4.7 nM.
`O=C1N=C(N2CCN(CCO)CC2)S/C1=C\c1ccc2c(cnn2Cc2ccc(Cl)cc2Cl)c1` [Compound 14, 5-[1-(2,4-Dichloro-benzyl)-1H-indazol-5-ylmethylene]-2-[4-(2-hydroxy-ethyl)-piperazin-1-yl]thiazol-4-one]: the response was half-maximal at 68 nM (EC50).
Compound `CN1CCN(C2=NC(=O)/C(=C/c3ccc4c(cnn4Cc4ccc(S(C)(=O)=O)cc4C(F)(F)F)c3)S2)CC1` [Compound 15, 5-[1-(4-Methanesulfonyl-2-trifluoromethyl-benzyl)-1H-indazol-5-ylmethylene]-2-(4-methyl-piperazin-1-yl)-thiazol-4-one] returned an EC50 of 530 nM.
Then `CS(=O)(=O)c1ccc(Cn2ncc3cc(/C=C4\SC(N5CCN(CCO)CC5)=NC4=O)ccc32)c(C(F)(F)F)c1` [Compound 16, 2-[4-(2-Hydroxy-ethyl)-piperazin-1-yl]-5-[1-(4-methanesulfonyl-2-trifluoromethyl-benzyl)-1H-indazol-5-ylmethylene]-thiazol-4-one], with 450 nM; and `CN1CCN(C2=NC(=O)/C(=C/c3ccc4c(cnn4Cc4ccc(S(C)(=O)=O)cc4Cl)c3)S2)CC1` [Compound 17, 5-[1-(2-Chloro-4-methanesulfonyl-benzyl)-1H-indazol-5-ylmethylene]-2-(4-methyl-piperazin-1-yl)-thiazol-4-one], with above 4000 nM; and `CS(=O)(=O)c1ccc(Cn2ncc3cc(/C=C4\SC(N5CCNC(=O)C5)=NC4=O)ccc32)c(Cl)c1` [Compound 18, 4-{5-[1-(2-Chloro-4-methanesulfonyl-benzyl)-1H-indazol-5-ylmethylene]-4-oxo-4,5-dihydro-thiazol-2-yl}-piperazin-2-one], with above 4000 nM.
As for `CS(=O)(=O)c1ccc(Cn2ncc3cc(/C=C4\SC(N5CCN(CCO)CC5)=NC4=O)ccc32)c(Cl)c1` [Compound 19, 5-[1-(2-Chloro-4-methanesulfonyl-benzyl)-1H-indazol-5-ylmethylene]-2-[4-(2-hydroxy-ethyl)-piperazin-1-yl]-thiazol-4-one], the figure is 350 nM; as for `CN1CCN(C2=NC(=O)/C(=C/c3ccc4c(cnn4Cc4ccc(C(N)=O)cc4C(F)(F)F)c3)S2)CC1` [Compound 20, 4-{5-[2-(4-Methyl-piperazin-1-yl)-4-oxo-4H-thiazol-5-ylidenemethyl]-indazol-1-ylmethyl}-3-trifluoromethyl-benzamide], 300 nM; as for `COc1ccc(Cn2ncc3cc(/C=C4\SC(N5CCN(C)CC5)=NC4=O)ccc32)c(C(F)(F)F)c1` [Compound 21, 5-[1-(4-Methoxy-2-trifluoromethyl-benzyl)-1H-indazol-5-ylmethylene]-2-(4-methyl-piperazin-1-yl)-thiazol-4-one], 3 nM.
Take `CN1CCN(C2=NC(=O)/C(=C/c3ccc4c(cnn4Cc4ccc(O)cc4C(F)(F)F)c3)S2)CC1` [Compound 22, 5-[1-(4-Hydroxy-2-trifluoromethyl-benzyl)-1H-indazol-5-ylmethylene]-2-(4-methyl-piperazin-1-yl)-thiazol-4-one]: it took 11.4 nM to reach a half-maximal effect (EC50). This EC50 is about 3.8-fold higher than that of the compound before.
`CN1CCN(C2=NC(=O)/C(=C/c3ccc4c(cnn4Cc4ccc(OS(C)(=O)=O)cc4C(F)(F)F)c3)S2)CC1` [Compound 23, Methanesulfonic acid 4-{5-[2-(4-methyl-piperazin-1-yl)-4-oxo-4H-thiazol-5-ylidenemethyl]-indazol-1-ylmethyl}-3-trifluoromethyl-phenyl ester] gave a half-maximal effective concentration (EC50) of 10.4 nM.
